# Assay results: patent US10028961B2, “Therapeutically active compounds and their methods of use” (AGIOS PHARMACEUTICALS, INC., priority 2013, dated 2018)
# Tests used:
# IDH2 R140Q = IDH2 R140Q (Homo sapiens (Human), UniProt P48735, R140Q); assay: In vitro assay for IDH2m R140Q inhibitors, cofactor depletion assay; format: biochemical; settings: IDH2 R140Q enzyme
# Summary of the method: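 Remaining cofactor measured fluorimetrically: diaphorase/resazurin Stop Mix […], halting the reaction. Before that, mutant enzyme and compound sat 1 h at RT, then substrate mix (4 μM NADPH, 1.6 mM α-KG) was added for 16 h at RT.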
# [1] = molecular target: IDH1-R132H homodimer enzyme (Homo sapiens (Human), UniProt O75874, R132H); assay: In vitro assay IDH1-R132H homodimer, NADPH depletion assay with NADPH/NADP preincubation; format: biochemical; settings: 5 μM NADPH and 37.5 μM NADP
# Summary of the method: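 Conversion of alpha-ketoglutarate to 2-hydroxyglutarate tracked by NADPH depletion. Reaction started with 5 mM alpha-ketoglutarate plus NADPH substrate mix (50 μl total), 60 min at room temperature. Leftover NADPH quantified via diaphorase/resazurin fluorescence.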
# HT1080 cells = assay: Cellular assay for IDH1m R132C inhibitors, 2-HG by LC-MS in HT1080 cells; format: cell-based; settings: Homo sapiens, HT-1080
# Summary of the method: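 HT1080 cells at 5000 cells/well were treated with compound (0.2% DMSO final). After 48 h, 2-HG in the medium was measured by LC-MS. Viability was read by CellTiter-Glo luminescence at 72 h.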
# Sequence of IDH1-R132H homodimer enzyme (O75874 whole entry R132H): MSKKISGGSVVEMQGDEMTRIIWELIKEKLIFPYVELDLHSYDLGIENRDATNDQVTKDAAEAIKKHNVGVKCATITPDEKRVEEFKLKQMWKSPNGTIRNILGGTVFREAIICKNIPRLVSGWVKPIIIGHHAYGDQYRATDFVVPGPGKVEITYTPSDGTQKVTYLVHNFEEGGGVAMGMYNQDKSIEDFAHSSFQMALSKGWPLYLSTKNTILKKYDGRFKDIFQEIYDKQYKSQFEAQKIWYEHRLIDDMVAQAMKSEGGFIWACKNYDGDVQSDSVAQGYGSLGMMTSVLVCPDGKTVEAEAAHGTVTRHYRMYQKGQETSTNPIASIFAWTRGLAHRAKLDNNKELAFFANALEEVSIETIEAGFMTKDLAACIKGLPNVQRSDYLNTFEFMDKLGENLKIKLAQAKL
# Sequence of IDH2 R140Q (P48735 40-452 R140Q): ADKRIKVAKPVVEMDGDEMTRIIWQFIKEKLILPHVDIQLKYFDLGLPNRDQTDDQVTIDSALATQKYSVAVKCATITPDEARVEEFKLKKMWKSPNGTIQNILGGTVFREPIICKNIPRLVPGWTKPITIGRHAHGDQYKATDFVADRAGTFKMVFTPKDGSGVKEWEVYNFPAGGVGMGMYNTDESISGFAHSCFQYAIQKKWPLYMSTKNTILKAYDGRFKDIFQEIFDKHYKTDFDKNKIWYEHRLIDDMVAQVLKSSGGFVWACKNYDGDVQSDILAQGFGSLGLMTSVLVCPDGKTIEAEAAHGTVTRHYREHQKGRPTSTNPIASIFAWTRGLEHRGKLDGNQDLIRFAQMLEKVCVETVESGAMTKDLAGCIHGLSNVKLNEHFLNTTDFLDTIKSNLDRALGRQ
Compound,IC50 (IDH2 R140Q) [µM],IC50 [1] [µM],IC50 (HT1080 cells) [µM]
CC(F)(F)c1cccc(-c2nc(NC3CCC(F)(F)C3)nc(NC3CCC(F)(F)C3)n2)n1 (stereo not drawn) [Compound 105],< 0.05,< 0.05,< 0.05
FC1(F)CCC(Nc2nc(Nc3ccnc(C(F)(F)F)c3)nc(-c3cccc(Cl)n3)n2)C1 (stereo not drawn) [Compound 115],< 0.05,< 0.05,0.1 to 1
C[C@@H](Nc1nc(N[C@H](C)C2CC2)nc(-n2ccc(C(F)(F)F)n2)n1)C1CC1 [Compound 121],< 0.05,0.05 to 0.1,< 0.05
Fc1cc(F)cc(Nc2nc(NC3CCC(F)(F)C3)nc(-c3cccc(C(F)(F)F)n3)n2)c1 (stereo not drawn) [Compound 123],< 0.05,< 0.05,0.1 to 1
N#Cc1cc(F)cc(Nc2nc(NC3CCC(F)(F)C3)nc(-c3cccc(C(F)(F)F)n3)n2)c1 (stereo not drawn) [Compound 124],< 0.05,< 0.05,–
FC1(F)CC(Nc2nc(NC3CC(F)(F)C3)nc(-n3ccc(C(F)(F)F)n3)n2)C1 [Compound 126],< 0.05,0.05 to 0.1,–
FC1(F)CC(Nc2nc(NC3CC(F)(F)C3)nc(-c3nc(C(F)(F)F)cs3)n2)C1 [Compound 128],< 0.05,< 0.05,< 0.05
Clc1cccc(-c2nc(NC(C3CC3)C3CC3)nc(NC(C3CC3)C3CC3)n2)n1 [Compound 131],< 0.05,0.05 to 0.1,–
CC(Nc1nc(Nc2ccnc(C3(C#N)CC3)c2)nc(-c2cccc(Cl)n2)n1)C(F)(F)F (stereo not drawn) [Compound 134],< 0.05,< 0.05,< 0.05
FC(F)c1cccc(-c2nc(NC3CC(F)(F)C3)nc(NC3CC(F)(F)C3)n2)n1 [Compound 145],< 0.05,< 0.05,0.1 to 1
FC1(F)CCC(Nc2nc(NC3CCC(F)(F)C3)nc(-n3ccc(C(F)(F)F)n3)n2)C1 (stereo not drawn) [Compound 146],< 0.05,< 0.05,–
FC1(F)CCC(Nc2nc(NC3CCC(F)(F)CC3)nc(-c3cncc(Cl)n3)n2)CC1 [Compound 147],< 0.05,0.05 to 0.1,0.1 to 1
FC1(F)CC(Nc2nc(NC3CC(F)(F)C3)nc(-c3cccc(C(F)(F)F)n3)n2)C1 [Compound 149],< 0.05,< 0.05,0.05 to 0.1
N#CC1(c2cc(Nc3nc(NC4CCC(F)(F)C4)nc(-c4cccc(C(F)(F)F)n4)n3)ccn2)CC1 (stereo not drawn) [Compound 151],< 0.05,< 0.05,–
FC1(F)CCC(Nc2nc(NC3Cc4ccccc4C3)nc(-c3cccc(C(F)(F)F)n3)n2)C1 (stereo not drawn) [Compound 152],< 0.05,< 0.05,–
CC(C)(C)Nc1nc(Nc2ccnc(C#N)c2)nc(-c2cccc(C(F)(F)F)n2)n1 [Compound 162],< 0.05,< 0.05,–
N#Cc1cc(F)cc(Nc2nc(NC3CCC(F)(F)CC3)nc(-c3cccc(C(F)(F)F)n3)n2)c1 [Compound 164],< 0.05,0.05 to 0.1,–
FC1(F)CC(Nc2nc(NC3CC(F)(F)C3)nc(-c3csc(C(F)(F)F)n3)n2)C1 [Compound 170],< 0.05,0.1 to 1,–
FC1(F)CCC(Nc2nc(NC3CCC(F)(F)CC3)nc(-n3ccc(C(F)(F)F)n3)n2)CC1 [Compound 176],< 0.05,0.1 to 1,0.1 to 1
N#Cc1cc(Nc2nc(NC3CCC(F)(F)C3)nc(-c3cccc(C(F)(F)F)n3)n2)ccn1 (stereo not drawn) [Compound 181],< 0.05,< 0.05,0.1 to 1
FC1(F)CCC(Nc2nc(NC3Cc4ccc(Cl)cc4C3)nc(-c3cccc(C(F)(F)F)n3)n2)C1 (stereo not drawn) [Compound 182],< 0.05,0.1 to 1,–

Compound,IC50 (IDH2 R140Q) [µM],IC50 [1] [µM],IC50 (HT1080 cells) [µM]
CC(F)(F)c1cccc(-c2nc(NC3CC(F)(F)C3)nc(NC3CC(F)(F)C3)n2)n1 [Compound 187],< 0.05,0.1 to 1,–
FC1(F)CCC(Nc2nc(NC3CC4(C3)CC(F)(F)C4)nc(-c3cccc(C(F)(F)F)n3)n2)C1 (stereo not drawn) [Compound 191],< 0.05,0.1 to 1,0.1 to 1
FC1(F)CCC(Nc2nc(Nc3ccnc(C(F)(F)F)c3)nc(-c3cccc(C(F)(F)F)n3)n2)CC1 [Compound 192],< 0.05,0.1 to 1,0.1 to 1
Fc1ccc([C@H]2C[C@@H](Nc3nc(NC4CCC(F)(F)C4)nc(-c4cccc(C(F)(F)F)n4)n3)C2)cc1 (stereo partly drawn) [Compound 199],< 0.05,0.1 to 1,–
N#Cc1cc(Nc2nc(NC3CC(F)(F)C3)nc(-c3cccc(C(F)(F)F)n3)n2)ccn1 [Compound 213],< 0.05,0.05 to 0.1,–
CC(CC#N)Nc1nc(N[C@H](C)C2CC2)nc(-c2cccc(C(F)(F)F)n2)n1 (stereo partly drawn) [Compound 214],< 0.05,0.1 to 1,–
FC1(F)CCC(Nc2nc(NC3CCN(c4ccccn4)C3)nc(-c3cccc(C(F)(F)F)n3)n2)C1 (stereo not drawn) [Compound 222],0.1 to 1,0.1 to 1,–
FC1(F)CCC(Nc2nc(NC3CCC(F)(F)CC3)nc(-c3csc(C(F)(F)F)n3)n2)CC1 [Compound 223],< 0.05,0.1 to 1,–
FC(F)c1cccc(-c2nc(NC3CCC(F)(F)CC3)nc(NC3CCC(F)(F)CC3)n2)n1 [Compound 224],< 0.05,0.1 to 1,0.1 to 1
N#CC1(c2cc(Nc3nc(NCC(F)(F)F)nc(-c4cccc(C(F)(F)F)n4)n3)ccn2)CC1 [Compound 226],< 0.05,0.1 to 1,–
FC1(F)CCC(Nc2nc(NC3CCN(c4ncccn4)C3)nc(-c3cccc(C(F)(F)F)n3)n2)C1 (stereo not drawn) [Compound 227],0.1 to 1,0.1 to 1,–
N#CC1(c2cc(Nc3nc(NC4CC5(C4)CC(F)(F)C5)nc(-c4cccc(C(F)(F)F)n4)n3)ccn2)CC1 [Compound 229],< 0.05,0.1 to 1,0.1 to 1
CC(C)(CC#N)Nc1nc(Nc2ccnc(C(C)(F)F)c2)nc(-c2cccc(C(F)(F)F)n2)n1 [Compound 231],< 0.05,0.1 to 1,> 1
FC1(F)CCC(Nc2nc(NC3CCC(F)(F)C3)nc(-c3nccc(C(F)(F)F)n3)n2)C1 (stereo not drawn) [Compound 237],< 0.05,0.1 to 1,0.1 to 1
CC(C)(C#N)Nc1nc(Nc2ccnc(C(C)(F)F)c2)nc(-c2cccc(C(F)(F)F)n2)n1 [Compound 247],< 0.05,0.1 to 1,–
FC1(F)CCC(Nc2nc(NC3CCC(F)(F)C3)nc(-c3cccc(OC(F)(F)F)n3)n2)C1 (stereo not drawn) [Compound 252],< 0.05,> 1,–
CC(C#N)Nc1nc(Nc2ccnc(C(C)(F)F)c2)nc(-c2cccc(C(F)(F)F)n2)n1 (stereo not drawn) [Compound 253],< 0.05,0.1 to 1,–
FC1(F)CC(Nc2nc(NC3CC(F)(F)C3)nc(-c3nccc(C(F)(F)F)n3)n2)C1 [Compound 256],< 0.05,> 1,–
N#CC1(c2cc(Nc3nc(NC4CCC(F)(F)C4)nc(-c4nccc(C(F)(F)F)n4)n3)ccn2)CC1 (stereo not drawn) [Compound 261],< 0.05,> 1,–
Fc1ccc([C@H]2C[C@@H](Nc3nc(N[C@H]4C[C@@H](c5ccc(F)cc5)C4)nc(-c4cccc(C(F)(F)F)n4)n3)C2)cc1 [Compound 272],0.1 to 1,> 1,0.1 to 1
FC1(F)CCC(Nc2nc(NC3CCC(F)(F)CC3)nc(-c3nccc(C(F)(F)F)n3)n2)CC1 [Compound 293],0.05 to 0.1,> 1,–
